Measurements reported in ChEMBL document CHEMBL3217587, “The discovery of N-1 substituted 2-aminobenzimidazoles as zinc-dependent S. aureus biofilm inhibitors” (Medchemcomm, 2012).
Calls of active or inactive are those of the source. The calls are words filed in the database; no cut-off is given here.

Columns and labels:
Staphylococcus aureus [1] = assay: Antimicrobial activity against methicillin-resistant Staphylococcus aureus ATCC 700789 after 16 hrs by broth microdilution method; format: functional; conditions: ATCC 700789, 16 h
Staphylococcus aureus [2] = assay: Antimicrobial activity against methicillin-resistant Staphylococcus aureus ATCC BAA-1556 after 16 hrs by broth microdilution method; format: functional; conditions: ATCC BAA-1556, 16 h
Staphylococcus aureus [3] = assay: Antimicrobial activity against methicillin-resistant Staphylococcus aureus ATCC BAA-44 assessed as inhibition of biofilm formation after 24 hrs by crystal violet staining-based microscopy; format: functional, organism-based; conditions: ATCC BAA-44, 24 h
Staphylococcus aureus [4] = assay: Antimicrobial activity against methicillin-resistant Staphylococcus aureus ATCC 43300 assessed as inhibition of biofilm formation at 8 uM after 24 hrs by crystal violet staining-based microscopy in presence of Ca2+ ion; format: functional, organism-based
Staphylococcus aureus [5] = assay: Antimicrobial activity against methicillin-resistant Staphylococcus aureus ATCC 43300 assessed as inhibition of biofilm formation at 8 uM after 24 hrs by crystal violet staining-based microscopy in presence of Mn2+ ion; format: functional, organism-based
Staphylococcus aureus [6] = assay: Antimicrobial activity against methicillin-resistant Staphylococcus aureus ATCC 33591 after 16 hrs by broth microdilution method; format: functional; conditions: ATCC 33591, 16 h
Staphylococcus aureus [7] = assay: Antibiofilm activity against methicillin-resistant Staphylococcus aureus ATCC 43300 assessed as biofilm dispersal at 20 uM after 24 hrs by crystal violet staining-based microscopy; format: functional, organism-based
Staphylococcus aureus [8] = assay: Antimicrobial activity against methicillin-resistant Staphylococcus aureus ATCC 43300 assessed as inhibition of biofilm formation after 24 hrs by crystal violet staining-based microscopy; format: functional, organism-based; conditions: ATCC 43300, 24 h
Acinetobacter baumannii = assay: Antimicrobial activity against multidrug-resistant Acinetobacter baumannii ATCC BAA-1605 after 16 hrs by broth microdilution method; format: functional; conditions: ATCC BAA-1605, 16 h
Pseudomonas aeruginosa = assay: Antimicrobial activity against Pseudomonas aeruginosa PA14 after 16 hrs by broth microdilution method; format: functional; conditions: PA14, 16 h
Staphylococcus aureus [9] = assay: Antimicrobial activity against methicillin-resistant Staphylococcus aureus ATCC BAA-1685 after 16 hrs by broth microdilution method; format: functional; conditions: ATCC BAA-1685, 16 h
Staphylococcus aureus [10] = assay: Antimicrobial activity against methicillin-resistant Staphylococcus aureus ATCC 43300 assessed as inhibition of biofilm formation at 8 uM after 24 hrs by crystal violet staining-based microscopy in presence of Cu2+ ion; format: functional, organism-based
Staphylococcus aureus [11] = assay: Antimicrobial activity against methicillin-resistant Staphylococcus aureus ATCC 43300 assessed as inhibition of biofilm formation at 8 uM after 24 hrs by crystal violet staining-based microscopy in presence of Fe2+ ion; format: functional, organism-based
Staphylococcus aureus [12] = assay: Antimicrobial activity against methicillin-resistant Staphylococcus aureus ATCC 43300 assessed as inhibition of biofilm formation at 8 uM after 24 hrs by crystal violet staining-based microscopy in presence of < 50 uM Zn2+ ion; format: functional
Staphylococcus aureus [13] = assay: Antimicrobial activity against methicillin-resistant Staphylococcus aureus ATCC BAA-44 after 16 hrs by broth microdilution method; format: functional; conditions: ATCC BAA-44, 16 h
Staphylococcus aureus [14] = assay: Antimicrobial activity against methicillin-resistant Staphylococcus aureus ATCC 43300 after 16 hrs by broth microdilution method; format: functional; conditions: ATCC 43300, 16 h
Staphylococcus aureus [15] = assay: Antimicrobial activity against methicillin-resistant Staphylococcus aureus ATCC 43300 assessed as inhibition of biofilm formation at 8 uM after 24 hrs by crystal violet staining-based microscopy in presence of Mg2+ ion; format: functional, organism-based
Staphylococcus aureus [16] = assay: Antimicrobial activity against methicillin-resistant Staphylococcus aureus ATCC BAA-811 after 16 hrs by broth microdilution method; format: functional; conditions: ATCC BAA-811, 16 h
Staphylococcus aureus [17] = assay: Toxicity in methicillin-resistant Staphylococcus aureus ATCC BAA-44 assessed as inhibition of planktonic cell growth at IC50 after 2 to 24 hrs by spectrophotometry; format: organism-based
Staphylococcus aureus [18] = assay: Antimicrobial activity against methicillin-resistant Staphylococcus aureus ATCC 43300 assessed as inhibition of biofilm formation at 8 uM after 24 hrs by crystal violet staining-based microscopy in presence of > 50 uM Zn2+ ion; format: functional, organism-based
Staphylococcus aureus [19] = assay: Antimicrobial activity against methicillin-susceptible Staphylococcus aureus ATCC 29213 after 16 hrs by broth microdilution method; format: functional; conditions: ATCC 29213, 16 h
Staphylococcus aureus [20] = assay: Toxicity in methicillin-resistant Staphylococcus aureus ATCC 43300 assessed as inhibition of planktonic cell growth at IC50 after 2 to 24 hrs by spectrophotometry; format: organism-based
Staphylococcus aureus [21] = assay: Antimicrobial activity against methicillin-resistant Staphylococcus aureus ATCC BAA-1753 after 16 hrs by broth microdilution method; format: functional; conditions: ATCC BAA-1753, 16 h
Staphylococcus aureus [22] = assay: Antimicrobial activity against methicillin-resistant Staphylococcus aureus ATCC 43300 assessed as inhibition of biofilm formation at 8 uM after 24 hrs by crystal violet staining-based microscopy in presence of 200 uM Zn2+ ion; format: functional

Compound	MIC (Staphylococcus aureus [1])	MIC (Staphylococcus aureus [2])	IC50 (Staphylococcus aureus [3])	MIC (Staphylococcus aureus [6])	Activity (Staphylococcus aureus [7])	IC50 (Staphylococcus aureus [8])	MIC (Acinetobacter baumannii)	MIC (Pseudomonas aeruginosa)	MIC (Staphylococcus aureus [9])	MIC (Staphylococcus aureus [13])	MIC (Staphylococcus aureus [14])	MIC (Staphylococcus aureus [16])	Activity (Staphylococcus aureus [17])	MIC (Staphylococcus aureus [19])	Activity (Staphylococcus aureus [20])	MIC (Staphylococcus aureus [21])	other results
CCCCCCn1c(N)nc2cc(NC(=O)c3ccc(CCCCC)cc3)ccc21.Cl	32 µg/mL	16 µg/mL	7.3 µM	16 µg/mL	inactive	4.7 µM	> 64 µg/mL	> 64 µg/mL	16 µg/mL	16 µg/mL	16 µg/mL	16 µg/mL	Non-toxic	16 µg/mL	Non-toxic	16 µg/mL	inhibition (Staphylococcus aureus [4]): Active; inhibition (Staphylococcus aureus [5]): Active; inhibition (Staphylococcus aureus [10]): Active; inhibition (Staphylococcus aureus [11]): Active; inhibition (Staphylococcus aureus [12]): inactive; inhibition (Staphylococcus aureus [15]): Active; inhibition (Staphylococcus aureus [18]): inactive
CCCCCc1ccc(C(=O)Nc2ccc3c(c2)nc(N)n3CCCc2ccccc2)cc1.Cl	32 µg/mL	16 µg/mL	5.2 µM	16 µg/mL	inactive	4.7 µM	> 64 µg/mL	> 64 µg/mL	32 µg/mL	32 µg/mL	16 µg/mL	16 µg/mL	Non-toxic	16 µg/mL	Non-toxic	32 µg/mL	
CCCCCc1ccc(C(=O)Nc2ccc3c(c2)nc(N)n3CCc2ccccc2)cc1.Cl	16 µg/mL	8 µg/mL	6 µM	8 µg/mL	inactive	4.7 µM	> 64 µg/mL	> 64 µg/mL	8 µg/mL	16 µg/mL	8 µg/mL	8 µg/mL	Non-toxic	8 µg/mL	Non-toxic	8 µg/mL	inhibition (Staphylococcus aureus [4]): Active; inhibition (Staphylococcus aureus [5]): Active; inhibition (INH) (Staphylococcus aureus [22]): 10%; inhibition (Staphylococcus aureus [10]): Active; inhibition (Staphylococcus aureus [11]): Active; inhibition (INH) (Staphylococcus aureus [12]): 70%; inhibition (Staphylococcus aureus [15]): Active; inhibition (Staphylococcus aureus [18]): inactive
CCCCCc1ccc(C(=O)Nc2ccc3c(c2)nc(N)n3Cc2ccccc2)cc1.Cl	> 64 µg/mL	> 64 µg/mL	6.8 µM	> 64 µg/mL	inactive	5.2 µM	> 64 µg/mL	> 64 µg/mL	> 64 µg/mL	> 64 µg/mL	> 64 µg/mL	> 64 µg/mL	Non-toxic	> 64 µg/mL	Non-toxic	> 64 µg/mL	
CCCCCc1ccc(C(=O)Nc2ccc3c(c2)nc(N)n3C(C)C)cc1.Cl	16 µg/mL	8 µg/mL	9.4 µM	16 µg/mL	inactive	7.9 µM	32 µg/mL	> 64 µg/mL	8 µg/mL	16 µg/mL	16 µg/mL	16 µg/mL	Non-toxic	16 µg/mL	Non-toxic	16 µg/mL	
CCCCCc1ccc(C(=O)Nc2ccc3c(c2)nc(N)n3CCc2c[nH]c3ccccc23)cc1.Cl	16 µg/mL	16 µg/mL	4.4 µM	8 µg/mL	inactive	3.7 µM	> 64 µg/mL	> 64 µg/mL	16 µg/mL	16 µg/mL	16 µg/mL	8 µg/mL	Toxic	16 µg/mL	Toxic	16 µg/mL	
CCCCCc1ccc(C(=O)Nc2ccc3c(c2)nc(N)n3CCCC)cc1.Cl	8 µg/mL	8 µg/mL	5 µM	8 µg/mL	inactive	4.5 µM	> 64 µg/mL	> 64 µg/mL	8 µg/mL	8 µg/mL	8 µg/mL	8 µg/mL	Non-toxic	8 µg/mL	Non-toxic	8 µg/mL	
CCCCCc1ccc(C(=O)Nc2ccc3c(c2)nc(N)n3CCCCc2ccccc2)cc1.Cl	32 µg/mL	16 µg/mL	14.3 µM	16 µg/mL	inactive	6.9 µM	> 64 µg/mL	> 64 µg/mL	32 µg/mL	32 µg/mL	32 µg/mL	32 µg/mL	Toxic	32 µg/mL	Toxic	> 64 µg/mL	
